Several values for one entry are separate records, joined by “and”; a condition that tells them apart may be missing. Equal entries are not always repeated. Toxic doses and inconclusive results are not listed.

Drawing on PubChem BioAssay AID330 (DTP/NCI, 2004), this text covers T/C for 25 compounds.

In the experiment the test system is P388 leukemia ip, CD2F1 mice, survival T/C. The experiment is described as follows: NCI In Vivo Anticancer Drug Screen. Data for tumor model P388 Leukemia (intraperitoneal) in CD2F1 (CDF1) mice. Conditions: endpoint: median survival time, higher = longer survival. The procedure, abridged: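 Mice carrying the transplanted tumor received test compound or vehicle. Survival was recorded in each group, and the value is the treated-group measurement divided by that of the vehicle-treated control group.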

Where [1] appears, read: dose: 100.0 mg/kg/injection, schedule: Q01DX009 (ip), vehicle: saline with Tween-80.
[2] abbreviates: dose: 200.0 mg/kg/injection, schedule: Q01DX009 (ip), vehicle: saline with Tween-80.
Setting [3] is: dose: 50.0 mg/kg/injection, schedule: Q01DX005 (ip), vehicle: Klucel (hydroxypropylcellulose) (HPC).
Where [4] appears, read: dose: 100.0 mg/kg/injection, schedule: Q01DX005 (ip), vehicle: Klucel (hydroxypropylcellulose) (HPC).
Setting [5] is: dose: 200.0 mg/kg/injection, schedule: Q01DX005 (ip), vehicle: Klucel (hydroxypropylcellulose) (HPC).
The mark [6] stands for this setting: dose: 60.0 mg/kg/injection, schedule: Q01DX005 (ip), vehicle: saline with Tween-80.
Setting [7] is: dose: 120.0 mg/kg/injection, schedule: Q01DX005 (ip), vehicle: saline with Tween-80.
The mark [8] stands for this setting: dose: 240.0 mg/kg/injection, schedule: Q01DX005 (ip), vehicle: saline with Tween-80.
Where [9] appears, read: dose: 12.5 mg/kg/injection, schedule: Q01DX009 (ip), vehicle: Klucel (hydroxypropylcellulose) (HPC).
The mark [10] stands for this setting: dose: 25.0 mg/kg/injection, schedule: Q01DX009 (ip), vehicle: Klucel (hydroxypropylcellulose) (HPC).
Where [11] appears, read: dose: 50.0 mg/kg/injection, schedule: Q01DX009 (ip), vehicle: Klucel (hydroxypropylcellulose) (HPC).
The mark [12] stands for this setting: dose: 100.0 mg/kg/injection, schedule: Q01DX009 (ip), vehicle: Klucel (hydroxypropylcellulose) (HPC).
[13] abbreviates: dose: 25.0 mg/kg/injection, schedule: Q01DX005 (ip), vehicle: saline.

On to `Cc1nc2ccc(NC(=O)NC(=O)c3c(F)cccc3F)cc2s1`, for which the T/C runs as follows: (dose: 50.0 mg/kg/injection, schedule: Q04DX002 (ip), vehicle: saline with Tween-80) 92 % of control; (dose: 100.0 mg/kg/injection, schedule: Q04DX002 (ip), vehicle: saline with Tween-80) 92 % of control; (dose: 200.0 mg/kg/injection, schedule: Q04DX002 (ip), vehicle: saline with Tween-80) 89 % of control.

With `CCOc1nc(N)nc(C)c1N=Nc1ccc(Br)cc1`, the T/C runs as follows: (dose: 60.0 mg/kg/injection, schedule: Q01DX005 (ip), vehicle: Klucel + Tween-80) 100 % of control; (dose: 120.0 mg/kg/injection, schedule: Q01DX005 (ip), vehicle: Klucel + Tween-80) 104 % of control; (dose: 240.0 mg/kg/injection, schedule: Q01DX005 (ip), vehicle: Klucel + Tween-80) 99 % of control.

`CCCCCCC(=O)/C=C/c1cccc([N+](=O)[O-])c1`: the T/C (dose: 50.0 mg/kg/injection, schedule: Q01DX009 (ip), vehicle: saline with Tween-80) is 89 % of control; the T/C under setting [1] is 95 % of control; the T/C under setting [2] was 94 % of control.

For `COC(=O)C1=CSCCC1=O`, the T/C is 105 % of control under setting [3], 106 % of control under setting [4] and 117 % of control under setting [5].

In the case of `CC1CCC2C(C)(C)C3CC12CC1OC13C` (centres undefined), the T/C under setting [6] was 100 % of control, the T/C under setting [7] is 91 % of control and the T/C under setting [8] is 96 % of control.

For `COc1ccccc1N=NNc1ccc(S(=O)(=O)NC(C)=O)cc1`, the T/C by setting is: under setting [3], 107 % of control; under setting [4], 114 % of control.

Turning to `C=C1C[C@@H](O)C[C@@]2(C)C[C@@H]3OC(=O)C(=C)[C@@H]3C[C@H]12`, the T/C by setting is: under setting [9], 99 % of control; under setting [10], 111 % of control; under setting [11], 114 % of control; under setting [12], 114 % of control.

In the case of `CN1[C@@H]2CC[C@H]1CC(O)(c1ccccc1)C2` (some centres undefined), the T/C runs as follows: (dose: 12.5 mg/kg/injection, schedule: Q01DX005 (ip), vehicle: saline) 94 % of control; under setting [13], 96 % of control; (dose: 50.0 mg/kg/injection, schedule: Q01DX005 (ip), vehicle: saline with Tween-80) 99 % of control; (dose: 50.0 mg/kg/injection, schedule: Q01DX005 (ip), vehicle: saline) 92 % of control.

As to `COc1c2ccoc2nc2c(OCC=C(C)C)c3c(cc12)OCO3`, the T/C was 101 % of control (dose: 5.0 mg/kg/injection, schedule: Q01DX005 (ip), vehicle: Klucel (hydroxypropylcellulose) (HPC)); 100 % of control (dose: 10.0 mg/kg/injection, schedule: Q01DX005 (ip), vehicle: Klucel (hydroxypropylcellulose) (HPC)); 100 % of control (dose: 20.0 mg/kg/injection, schedule: Q01DX005 (ip), vehicle: Klucel (hydroxypropylcellulose) (HPC)); 101 % of control (dose: 40.0 mg/kg/injection, schedule: Q01DX005 (ip), vehicle: Klucel (hydroxypropylcellulose) (HPC)); 94 % of control (dose: 80.0 mg/kg/injection, schedule: Q01DX005 (ip), vehicle: Klucel (hydroxypropylcellulose) (HPC)).

Take `CC(=O)N(C)N`: the T/C was 107 % of control (dose: 60.0 mg/kg/injection, schedule: Q01DX005 (ip), vehicle: saline); 102 % of control (dose: 120.0 mg/kg/injection, schedule: Q01DX005 (ip), vehicle: saline); 93 % of control (dose: 240.0 mg/kg/injection, schedule: Q01DX005 (ip), vehicle: saline).

Take `Cc1ccc(-n2c3nc(=O)n(C)c(=O)c-3nc3ccccc32)cc1C`: the T/C (dose: 100.0 mg/kg/injection, schedule: Q01DX001 (ip), vehicle: Klucel (hydroxypropylcellulose) (HPC)) was 95 % of control and the T/C (dose: 200.0 mg/kg/injection, schedule: Q01DX001 (ip), vehicle: Klucel (hydroxypropylcellulose) (HPC)) was 92 % of control.

As for `O=C1C2C3C=CC(C3)C2C(=O)N1CNc1ccc2nc(SC3C=CCCC3)sc2c1` (centres undefined), the T/C by setting is: under setting [9], 106 % of control; under setting [10], 101 % of control; under setting [11], 90 % of control and 98 % of control; (dose: 200.0 mg/kg/injection, schedule: Q01DX009 (ip), vehicle: Klucel (hydroxypropylcellulose) (HPC)) 91 % of control.

Regarding `Cc1ccnc(NS(=O)(=O)c2ccc(NC(=O)Nc3cccc(Cl)c3)cc2)n1`, the T/C was 86 % of control under setting [3], 87 % of control under setting [4] and 89 % of control under setting [5].

Take `O=C1OC(c2ccc(F)cc2)CC1CN1CCOCC1` (centres undefined): the T/C by setting is: under setting [6], 105 % of control; under setting [7], 105 % of control; under setting [8], 99 % of control.

As for `O=c1ccn(C2CC(O)C(CO)O2)c(=O)[nH]1` (centres undefined), the T/C under setting [3] is 100 % of control, the T/C under setting [4] was 101 % of control and the T/C under setting [5] was 106 % of control.

For the compound `Nc1nccc2c1ncn2C1OC(CO)C(O)C1O` (centres undefined), the T/C reads like this: (dose: 4.67 mg/kg/injection, schedule: Q03HX024 (ip), vehicle: saline with Tween-80) 110 % of control; (dose: 4.69 mg/kg/injection, schedule: Q03HX024 (ip), vehicle: saline with Tween-80) 114 % of control; (dose: 9.38 mg/kg/injection, schedule: Q03HX024 (ip), vehicle: saline with Tween-80) 111 % of control and 112 % of control; (dose: 12.5 mg/kg/injection, schedule: Q01DX009 (ip), vehicle: saline with Tween-80) 94 % of control and 97 % of control; (dose: 18.75 mg/kg/injection, schedule: Q03HX024 (ip), vehicle: saline with Tween-80) 97 % of control; (dose: 25.0 mg/kg/injection, schedule: Q01DX009 (ip), vehicle: saline with Tween-80) 92 % of control and 93 % of control. The T/C is, setting by setting: (dose: 37.5 mg/kg/injection, schedule: Q03HX024 (ip), vehicle: saline with Tween-80) 112 % of control and 117 % of control; under setting [1], 88 % of control and 94 % of control; under setting [2], 86 % of control.

Take `CC(=O)OC1CC[N+](C)(Cc2ccccc2)C1` (centres undefined): the T/C (dose: 50.0 mg/kg/injection, schedule: Q01DX009 (ip), vehicle: saline) was 107 % of control and the T/C (dose: 100.0 mg/kg/injection, schedule: Q01DX009 (ip), vehicle: saline) is 91 % of control.

As for `O=C1OC(c2ccc([N+](=O)[O-])cc2)=N/C1=C\c1ccc(Cl)cc1`, the T/C (dose: 3.13 mg/kg/injection, schedule: Q01DX009 (ip), vehicle: Klucel (hydroxypropylcellulose) (HPC)) is 115 % of control; the T/C (dose: 6.25 mg/kg/injection, schedule: Q01DX009 (ip), vehicle: Klucel (hydroxypropylcellulose) (HPC)) was 115 % of control; the T/C under setting [9] was 105 % of control and 88 % of control; the T/C under setting [10] is 88 % of control.

Take `Nc1ncnc2c1nc(N)n2C1OC(CO)C(O)C1O` (centres undefined): the T/C is, setting by setting: (dose: 6.0 mg/kg/injection, schedule: Q01DX005 (ip), vehicle: saline) 122 % of control; under setting [13], 119 % of control.

Consider `COc1ccc(CSC(=S)Nc2ccc(Cl)c(Cl)c2)cc1`, for which the T/C was 111 % of control under setting [9]; 120 % of control under setting [10]; 120 % of control and 121 % of control under setting [11]; 111 % of control under setting [12].

Consider `CCOC(=O)c1ccc(NC(=O)Nc2ccccc2F)cc1`, for which the T/C is 95 % of control under setting [6], 95 % of control under setting [7] and 104 % of control under setting [8].

Consider `O=c1c2c(c(=O)c(=O)c1=O)Nc1ccccc1N2`, for which the T/C is, setting by setting: under setting [6], 100 % of control; under setting [7], 101 % of control; under setting [8], 107 % of control.

Consider `Cc1cc(C)c2ccc(NN=O)nc2n1`, for which the T/C is, setting by setting: (dose: 3.12 mg/kg/injection, schedule: Q01DX009 (ip), vehicle: water) 118 % of control; (dose: 12.5 mg/kg/injection, schedule: Q01DX009 (ip), vehicle: water) 163 % of control; (dose: 25.0 mg/kg/injection, schedule: Q01DX009 (ip), vehicle: water) 167 % of control and 169 % of control.

With `NC(=O)C12CCCCC1CCC(=O)C2` (centres undefined), the T/C is 100 % of control (dose: 2.5 mg/kg/injection, schedule: Q01DX009 (ip), vehicle: saline); 100 % of control (dose: 5.0 mg/kg/injection, schedule: Q01DX009 (ip), vehicle: saline); 100 % of control (dose: 10.0 mg/kg/injection, schedule: Q01DX009 (ip), vehicle: saline).

Turning to `CCOc1ccccc1C1N(C)CCCN1C`, the T/C is, setting by setting: (dose: 6.25 mg/kg/injection, schedule: Q01DX009 (ip), vehicle: saline sonified) 90 % of control; (dose: 12.5 mg/kg/injection, schedule: Q01DX009 (ip), vehicle: saline sonified) 95 % of control; (dose: 25.0 mg/kg/injection, schedule: Q01DX009 (ip), vehicle: saline sonified) 86 % of control.
